From US10301304B2, “Selective inhibitor of phosphatidylinositol 3-kinase-gamma” (VERTEX PHARMACEUTICALS INCORPORATED, priority 2013, dated 2019)
Read-outs that look alike come from different tables or passages of the source.

Key:
[1] = Oral pharmacokinetics / bioavailability; assay type: in vivo; conditions: single oral; for AUC / AUC(0-inf) / Cmax / MRT / Tmax / half-life: in vivo
Text: The bioavailability in monkey (greater than 100%) may be explained by the tenfold difference between the IV and oral doses. Compound 1 was rapidly absorbed in all species, with maximum systemic concentration observed within approximately one to three hours of dosing.

[2] = biological target: T1, pregnane-X receptor (PXR) (Homo sapiens, UniProt O75469); test: PXR activation in DPX2 cells; assay type: in vitro ADME
T1 construct: expressed in transfected cells; host or cells: DPX2 cells (human hepatoma cell line)
Procedure: The potential of Compound 1 to activate the pregnane-X receptor (PXR) was evaluated over a range of six concentrations from 0.1-30 μM in DPX2 cells, a human hepatoma cell line that is stably overexpressed with the human PXR gene and a luciferase reporter gene linked to two promoters in the human CYP3A4 gene. Rifampicin was used as a positive control.

[3] = Intravenous bolus pharmacokinetics; assay type: in vivo; conditions: single IV bolus; for AUC / AUC(0-inf) / clearance / half-life / Vd: in vivo; for Vd: read-out: Vss
Text: Following intravenous administration of a single bolus dose, Compound 1 had low systemic clearance and a long half-life in all species tested. […] The volume of distribution was greater than the total body water, indicating distribution of Compound 1 to tissues.

PI3K-δ = PI3K-δ (Homo sapiens, UniProt O00329); test: PI3K Inhibition Assay; assay type: biochemical
Procedure: (§1) Using a Biomek FX from Beckman Coulter, 1.5 μL of each of ten 2.5-fold serial dilutions of the compound of the invention in 100% DMSO was added to an individual well (hereafter, “test well”) in a 96 well polystyrene plate [Corning, Costar Item No. 3697]. One test well also contained 1.5 μL of DMSO with no compound. […] Using a Titertek Multidrop, 50 μL of Reaction Mix [100 mM HEPES pH 7.5, 50 mM NaCl, 10 mM DTT, 0.2 mg/mL BSA, 60 μM phosphatidylinositol(4,5)-bisphosphate diC16 (PI(4,5)P2; Avanti Polar Lipids, Cat. No. 840046P) and PI3K isoform of interest (see Table 1 for isoform concentrations)] was added to each well. To initiate the reaction, 50 μL of ATP Mix [20 mM MgCl2, 6 μM ATP (100 μCi/μmole ^33P-ATP was added to each well, followed by incubating the wells for 30 min. at 25° C. Final concentrations in each well were 50 mM HEPES 7.5, 10 mM MgCl2, 25 mM NaCl, 5 mM DTT, 0.1 mg/mL BSA, 30 μM PI(4,5)P2, 3 μM ATP, and the PI3K isoform of interest (see Table 2). Final compound concentrations in each well ranged from 10 μM to 1 nM.
(§2) After incubation, the reactions in each well were quenched by addition of 50 μL of stop solution [30% TCA/Water, 10 mM ATP]. Each quenched reaction mixture was then transferred to a 96 well glass fiber filter plate [Corning, Costar Item No. 3511]. The plate was vacuum-filtered and washed three times with 150 μL of 5% TCA/water in a modified Bio-Tek Instruments ELX-405 Auto Plate Washer. 50 μL of scintillation fluid was added to each well and the plate read on a Perkin-Elmer TopCount™ NXT liquid scintillation counter to obtain ^33P-counts representing inhibition values.
(§3) The value for the background well was subtracted from the value obtained for each test well and the data were fit to the competitive tight binding Ki equation described by Morrison and Stone, Comments Mol. Cell Biophys. 2: 347-368, 1985. […] In addition, isoform selectivity was also seen as Compound 1 was tested against PI3K-alpha, PI3K-beta, and PI3K-delta isoforms and was determined to have a selectivity of greater than 15 fold for PI3K-gamma as shown in Table 2.

PI3K-β = PI3K-β (Homo sapiens, UniProt P42338); test: PI3K Inhibition Assay; assay type: biochemical
Procedure: as §1, §2, §3

PI3K-α = PI3K-α (Homo sapiens, UniProt P42336); test: PI3K Inhibition Assay; assay type: biochemical
Procedure: as §1, §2, §3

PI3K-γ = PI3K-γ (Homo sapiens, UniProt P48736); test: PI3K Inhibition Assay; assay type: biochemical
Procedure: as §1, §2, §3

[4] = Dog, 3 mg/kg nominal, spray-dried dispersion
[5] = Monkey, 5 mg/kg nominal, spray-dried dispersion
[6] = Mouse, 1 mg/kg nominal, 0.2% MC/1% SLS

Chain of PI3K-β (P42338 whole entry, species assumed): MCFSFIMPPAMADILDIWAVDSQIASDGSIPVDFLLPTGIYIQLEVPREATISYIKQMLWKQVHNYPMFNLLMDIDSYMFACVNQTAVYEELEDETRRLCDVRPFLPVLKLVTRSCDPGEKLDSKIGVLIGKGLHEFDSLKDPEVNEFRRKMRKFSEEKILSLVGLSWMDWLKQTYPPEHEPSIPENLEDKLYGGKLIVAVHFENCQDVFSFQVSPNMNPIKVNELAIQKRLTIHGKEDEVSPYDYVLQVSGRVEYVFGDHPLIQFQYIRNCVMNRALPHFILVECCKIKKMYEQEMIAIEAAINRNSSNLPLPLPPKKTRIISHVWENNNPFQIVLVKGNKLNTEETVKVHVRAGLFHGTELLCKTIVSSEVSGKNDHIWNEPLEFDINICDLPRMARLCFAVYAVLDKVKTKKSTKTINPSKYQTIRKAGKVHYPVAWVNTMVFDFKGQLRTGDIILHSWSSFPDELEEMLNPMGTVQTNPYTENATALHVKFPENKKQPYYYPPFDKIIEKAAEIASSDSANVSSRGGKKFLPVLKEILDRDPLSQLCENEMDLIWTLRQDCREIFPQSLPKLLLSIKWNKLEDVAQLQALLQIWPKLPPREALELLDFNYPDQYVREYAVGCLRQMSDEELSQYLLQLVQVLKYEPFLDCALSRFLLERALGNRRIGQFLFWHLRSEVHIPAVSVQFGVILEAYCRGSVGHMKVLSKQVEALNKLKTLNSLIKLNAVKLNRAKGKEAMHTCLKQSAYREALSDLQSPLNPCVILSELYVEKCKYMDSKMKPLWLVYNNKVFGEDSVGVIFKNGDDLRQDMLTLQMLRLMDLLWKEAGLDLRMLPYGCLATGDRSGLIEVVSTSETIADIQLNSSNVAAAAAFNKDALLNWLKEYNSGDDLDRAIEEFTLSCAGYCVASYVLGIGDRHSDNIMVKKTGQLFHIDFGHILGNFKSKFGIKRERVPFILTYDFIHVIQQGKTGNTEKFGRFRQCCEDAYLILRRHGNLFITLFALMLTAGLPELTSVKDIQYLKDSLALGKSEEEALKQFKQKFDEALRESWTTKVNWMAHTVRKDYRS
Chain of PI3K-β (P27986 whole entry partner, species assumed): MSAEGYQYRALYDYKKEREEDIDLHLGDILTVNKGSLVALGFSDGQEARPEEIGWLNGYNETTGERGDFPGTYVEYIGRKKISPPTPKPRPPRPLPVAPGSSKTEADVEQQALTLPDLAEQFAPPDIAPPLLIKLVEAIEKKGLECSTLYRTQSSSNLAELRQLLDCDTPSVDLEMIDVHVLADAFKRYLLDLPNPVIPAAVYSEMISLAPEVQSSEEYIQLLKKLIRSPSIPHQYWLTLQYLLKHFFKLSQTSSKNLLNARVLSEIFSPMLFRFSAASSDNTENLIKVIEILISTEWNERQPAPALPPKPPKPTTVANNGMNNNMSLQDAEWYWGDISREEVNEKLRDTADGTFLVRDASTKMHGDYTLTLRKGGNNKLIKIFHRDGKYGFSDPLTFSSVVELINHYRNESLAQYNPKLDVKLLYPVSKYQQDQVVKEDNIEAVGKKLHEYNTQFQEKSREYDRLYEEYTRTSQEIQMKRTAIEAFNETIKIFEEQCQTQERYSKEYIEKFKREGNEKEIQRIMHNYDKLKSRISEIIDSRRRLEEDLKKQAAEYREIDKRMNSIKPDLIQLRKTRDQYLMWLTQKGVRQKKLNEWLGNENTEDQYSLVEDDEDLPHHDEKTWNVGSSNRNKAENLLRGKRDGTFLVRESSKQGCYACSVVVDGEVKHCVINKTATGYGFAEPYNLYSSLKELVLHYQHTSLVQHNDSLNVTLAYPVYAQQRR
Chain of PI3K-γ (P48736 whole entry, species assumed): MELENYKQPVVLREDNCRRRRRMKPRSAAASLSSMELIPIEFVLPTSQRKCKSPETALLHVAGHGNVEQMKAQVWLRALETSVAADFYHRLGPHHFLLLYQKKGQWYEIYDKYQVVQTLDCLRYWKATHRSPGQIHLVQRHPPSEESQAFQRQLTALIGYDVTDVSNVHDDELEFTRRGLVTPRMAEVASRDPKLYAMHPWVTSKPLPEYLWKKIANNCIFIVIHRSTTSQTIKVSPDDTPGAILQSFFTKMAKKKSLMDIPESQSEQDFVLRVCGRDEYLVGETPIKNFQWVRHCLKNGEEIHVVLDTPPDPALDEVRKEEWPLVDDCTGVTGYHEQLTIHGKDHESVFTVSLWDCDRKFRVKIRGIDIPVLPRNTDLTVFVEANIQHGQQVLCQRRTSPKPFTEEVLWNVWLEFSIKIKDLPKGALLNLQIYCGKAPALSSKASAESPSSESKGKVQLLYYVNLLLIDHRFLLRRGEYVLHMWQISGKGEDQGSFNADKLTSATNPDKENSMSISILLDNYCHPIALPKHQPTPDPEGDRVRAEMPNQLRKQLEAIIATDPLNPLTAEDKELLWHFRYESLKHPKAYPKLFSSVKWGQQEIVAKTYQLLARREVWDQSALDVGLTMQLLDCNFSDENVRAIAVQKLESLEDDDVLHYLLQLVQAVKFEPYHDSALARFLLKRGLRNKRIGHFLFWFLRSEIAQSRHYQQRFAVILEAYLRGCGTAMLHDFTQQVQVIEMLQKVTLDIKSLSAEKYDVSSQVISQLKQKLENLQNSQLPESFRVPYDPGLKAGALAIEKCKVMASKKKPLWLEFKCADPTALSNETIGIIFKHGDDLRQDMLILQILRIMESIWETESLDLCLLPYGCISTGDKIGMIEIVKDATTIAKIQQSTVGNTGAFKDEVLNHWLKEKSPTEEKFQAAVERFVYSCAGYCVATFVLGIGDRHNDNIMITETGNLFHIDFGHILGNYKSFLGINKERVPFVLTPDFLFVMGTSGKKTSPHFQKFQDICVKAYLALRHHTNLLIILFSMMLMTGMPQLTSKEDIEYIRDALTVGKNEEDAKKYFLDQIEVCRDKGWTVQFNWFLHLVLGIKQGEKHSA
Chain of PI3K-δ (O00329 whole entry, species assumed, canonical isoform): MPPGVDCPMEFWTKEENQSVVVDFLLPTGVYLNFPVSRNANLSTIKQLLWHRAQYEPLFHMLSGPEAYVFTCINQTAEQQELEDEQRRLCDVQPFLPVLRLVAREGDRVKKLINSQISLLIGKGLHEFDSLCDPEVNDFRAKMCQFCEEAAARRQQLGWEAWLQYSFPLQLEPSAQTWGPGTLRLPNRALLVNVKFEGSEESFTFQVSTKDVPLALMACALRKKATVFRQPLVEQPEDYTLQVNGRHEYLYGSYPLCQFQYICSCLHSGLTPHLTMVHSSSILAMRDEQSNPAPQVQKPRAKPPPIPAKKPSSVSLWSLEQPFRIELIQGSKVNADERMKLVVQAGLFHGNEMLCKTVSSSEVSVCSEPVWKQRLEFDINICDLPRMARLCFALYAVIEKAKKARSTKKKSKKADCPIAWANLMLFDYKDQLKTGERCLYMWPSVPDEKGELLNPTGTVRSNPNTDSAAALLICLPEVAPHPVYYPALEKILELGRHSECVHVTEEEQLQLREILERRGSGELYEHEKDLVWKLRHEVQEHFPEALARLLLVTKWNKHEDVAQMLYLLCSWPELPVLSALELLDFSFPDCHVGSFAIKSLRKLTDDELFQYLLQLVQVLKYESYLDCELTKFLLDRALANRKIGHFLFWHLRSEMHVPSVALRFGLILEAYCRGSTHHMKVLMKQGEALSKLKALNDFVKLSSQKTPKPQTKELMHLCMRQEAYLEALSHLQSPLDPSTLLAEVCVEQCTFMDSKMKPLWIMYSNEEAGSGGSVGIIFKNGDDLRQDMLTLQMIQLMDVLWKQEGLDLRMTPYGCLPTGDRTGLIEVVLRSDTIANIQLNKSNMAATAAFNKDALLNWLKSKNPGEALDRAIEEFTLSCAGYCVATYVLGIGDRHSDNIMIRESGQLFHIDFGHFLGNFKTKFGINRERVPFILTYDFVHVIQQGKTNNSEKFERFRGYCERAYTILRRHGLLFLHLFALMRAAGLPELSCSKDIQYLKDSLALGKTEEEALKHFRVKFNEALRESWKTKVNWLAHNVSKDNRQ
Chain of PI3K-δ (P27986 whole entry partner, species assumed, canonical isoform): as the sequence (P27986 whole entry partner, species assumed) above
T1 sequence (O75469 whole entry): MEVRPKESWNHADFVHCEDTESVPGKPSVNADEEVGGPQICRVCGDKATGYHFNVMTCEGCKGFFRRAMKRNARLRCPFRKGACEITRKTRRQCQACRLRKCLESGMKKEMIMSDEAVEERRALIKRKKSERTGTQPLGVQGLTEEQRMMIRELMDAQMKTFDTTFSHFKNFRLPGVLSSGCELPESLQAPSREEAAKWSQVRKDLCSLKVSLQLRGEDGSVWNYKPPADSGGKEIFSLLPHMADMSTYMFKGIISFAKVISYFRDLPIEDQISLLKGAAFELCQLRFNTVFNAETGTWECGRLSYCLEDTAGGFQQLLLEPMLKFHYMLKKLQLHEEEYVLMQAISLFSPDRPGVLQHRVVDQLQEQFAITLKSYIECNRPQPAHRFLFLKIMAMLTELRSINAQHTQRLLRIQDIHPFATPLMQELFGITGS

Cc1cc(-c2cncc([C@@H](O)C(F)(F)F)c2)nc2c1C(=O)N(c1cnn(CC(F)F)c1)C2(C)C [Compound 1, (R)-6-(1-(2,2-difluoroethyl)-1H-pyrazol-4-yl)-4,7,7-trimethyl-2-(5-(2,2,2-trifluoro-1-hydroxyethyl)pyridin-3-yl)-6,7-dihydro-5H-pyrrolo[3,4-b]pyridin-5-one]
DN_AUCINF [1, 4]: 3.1 µg·h/mL
F ([1]; Dog, 3 mg/kg nominal, spray-dried dispersion, 3 mg/kg): 77%
DN_AUCINF [1, 5]: 2.5 µg·h/mL
DN_AUCINF [1, 6]: 2.76 µg·h/mL
F ([1]; Mouse, 1 mg/kg nominal, 0.2% MC/1% SLS, 1 mg/kg): 81%
AUC [1, 4]: 9.11 µg·h/mL
AUC(0-inf) [1, 4]: 9.29 µg·h/mL
Cmax [1, 4]: 1.29 µg/mL
MRT [1, 4]: 9 h
Tmax [1, 4]: 0.83 h
half-life [1, 4]: 7.3 h
AUC [1, 5]: 12.3 µg·h/mL
AUC(0-inf) [1, 5]: 12.5 µg·h/mL
Cmax [1, 5]: 1.35 µg/mL
MRT [1, 5]: 10.5 h
Tmax [1, 5]: 1.67 h
half-life [1, 5]: 8.5 h
AUC [1, 6]: 2.72 µg·h/mL
AUC(0-inf) [1, 6]: 2.76 µg·h/mL
Cmax [1, 6]: 0.29 µg/mL
MRT [1, 6]: 5.8 h
Tmax [1, 6]: 2 h
half-life [1, 6]: 3.8 h
PXR activation, response relative to positive control ([2]; 0.1-30 μM, Rifampicin positive control): 5%
EC50 ([2]; PXR activation): > 30 µM
% HBF (hepatic blood flow) ([3]; Dog, 0.5 mg/kg nominal): ~13%
DN_AUCINF ([3]; Dog, 0.5 mg/kg nominal): 4.0 µg·h/mL
% HBF (hepatic blood flow) ([3]; Monkey, 0.5 mg/kg nominal): ~26%
DN_AUCINF ([3]; Monkey, 0.5 mg/kg nominal): 1.5 µg·h/mL
DN_AUCINF ([3]; Mouse, 0.45 mg/kg nominal): 3.4 µg·h/mL
AUC ([3]; Dog, 0.5 mg/kg nominal): 1.9 µg·h/mL
AUC(0-inf) ([3]; Dog, 0.5 mg/kg nominal): 2 µg·h/mL
clearance ([3]; Dog, 0.5 mg/kg nominal): 0.324 L/h/kg
half-life ([3]; Dog, 0.5 mg/kg nominal): 10.7 h
Vd ([3]; Dog, 0.5 mg/kg nominal): 3.9 L/kg
AUC ([3]; Monkey, 0.5 mg/kg nominal): 0.7 µg·h/mL
AUC(0-inf) ([3]; Monkey, 0.5 mg/kg nominal): 0.74 µg·h/mL
clearance ([3]; Monkey, 0.5 mg/kg nominal): 0.69 L/h/kg
half-life ([3]; Monkey, 0.5 mg/kg nominal): 6.6 h
Vd ([3]; Monkey, 0.5 mg/kg nominal): 3.3 L/kg
AUC ([3]; Mouse, 0.45 mg/kg nominal): 1.09 µg·h/mL
AUC(0-inf) ([3]; Mouse, 0.45 mg/kg nominal): 1.53 µg·h/mL
clearance ([3]; Mouse, 0.45 mg/kg nominal): 0.294 L/h/kg
half-life ([3]; Mouse, 0.45 mg/kg nominal): 4.3 h
Vd ([3]; Mouse, 0.45 mg/kg nominal): 1.8 L/kg
Fold Selectivity (PI3K-δ; PI3Kγ over PI3Kδ): 19 fold
Ki (PI3K-δ; PI3Kδ): 0.16 ± 0.05 µM
Ki (PI3K-β; PI3Kβ): 0.22 ± 0.03 µM
Fold Selectivity (PI3K-β; PI3Kγ over PI3Kβ): 26 fold
Ki (PI3K-α; PI3Kα): 0.28 ± 0.09 µM
Fold Selectivity (PI3K-α; PI3Kγ over PI3Kα): 30 fold
Ki (PI3K-γ; PI3K-gamma, ATP-competitive): 0.008 µM
selectivity for PI3K-gamma (PI3K-γ; against PI3K-alpha, PI3K-beta and PI3K-delta isoforms): greater than 15 fold
